From patent US20240408170A1, “COMPOSITION FOR DECOMPOSITION OF TRYPSIN OR TMPRSS2” (Riken, priority 2021, published 2024)

How the values were obtained:
IgA heavy chain = experiment: Western blot of faeces of GF mice inoculated with P. clara strain together with 2-mix; format: in vivo, mouse; settings: compared to Δ00502 or Δ00509
Procedure: (§1) Mouse faecal samples were suspended and diluted 50-fold with phosphate buffered saline (PBS) to which a protease inhibitor cocktail (Roche) was added. Subsequently, the suspended sample was centrifuged at 15,000×g for 10 minutes at 4° C., and the supernatant was subjected to western blot. Mouse pancreatic tissue was rapidly frozen in liquid nitrogen. Proteins were extracted by TRIzol Reagent (Thermo Fisher Scientific K.K.), and the final protein concentration was adjusted to 4 μg/μL. For SDS-PAGE and blotting, Novex (registered trademark) NuPAGE (registered trademark) SDS-PAGE Gel system (Thermo Fisher Scientific K.K.) and iBlot™ 2 Dry Blotting System (Thermo Fisher Scientific K.K.) were used according to the manufacturer's instructions.
(§2) The antibodies used are as follows. […]

Citrobacter rodentium = experiment: Vaccine administration experiment (peracetic acid-inactivated C. rodentium) followed by C. rodentium infection; format: in vivo, mouse; settings: with 2-mix
Procedure: For a colony-forming unit (CFU) assay, cecal patches or cecal luminal contents were collected, and after homogenization with PBS, serially diluted homogenates were plated on LB agar plates. CFU was counted after overnight culture at 37° C. under aerobic conditions.
For the ex vivo evaluation of C. rodentium-specific IgA, the cecal contents were resuspended in a 5× (w/v) LB medium and centrifuged. The supernatant was filtered through a sterilization filter unit with a PVDF film having a pore size of 0.22 μm, and then mixed with an equal amount of a C. rodentium culture solution cultured overnight in vitro. This mixture was gently shaken at room temperature and incubated for 1 hour to examine the aggregation effect with a confocal microscope (Leica TCS SP8). Alternatively, after the incubation, the mixture was centrifuged and washed once with PBS. Thereafter, the bacterial cell pellet was dissolved in a 1% SDS solution (diluted with a 50 mM Tris-HCl buffer solution to which 5 mM EDTA was added). The lysate was stained by western blot with a goat anti-mouse IgA a chain antibody (HRP) (ab97235) to evaluate the relative amount of C. rodentium-binding (C. rodentium-specific) IgA in the faecal contents.
For a vaccine administration experiment, 200 μL of 2-mix (B. uniformis and P. merdae)+P. clara (WT), or 2-mix+P. clara (Δ00502) was preliminarily administered to GF mice. After 4 days, C. rodentium (10^10 cells/mouse) inactivated with peracetic acid was orally administered to the mice once a week for 3 weeks. After 3 weeks of immunization, the mice were infected with C. rodentium (150 μL/mouse) cultured overnight by oral administration, and euthanized on day 14.
The C. rodentium inactivated by peracetic acid was produced as follows. C. rodentium cultured overnight was recovered by centrifugation (16,000×g, 10 minutes) and resuspended in sterilized PBS at a density of 10^10 cells per 1 mL. Peracetic acid (240990, Sigma-Aldrich) was added such that a final concentration was 0.4%, and incubation was performed at room temperature for 1 hour. […]

TMPRSS2 = biological target: T1, TMPRSS2 (Mus musculus, UniProt Q9JIQ8); experiment: Western blot of faeces of GF mice inoculated with P. clara strain together with 2-mix; format: in vivo
T1 construct: from tissue; host or cells: faeces of gnotobiotic mice
T1 sequence (Q9JIQ8 254-490 limits assumed): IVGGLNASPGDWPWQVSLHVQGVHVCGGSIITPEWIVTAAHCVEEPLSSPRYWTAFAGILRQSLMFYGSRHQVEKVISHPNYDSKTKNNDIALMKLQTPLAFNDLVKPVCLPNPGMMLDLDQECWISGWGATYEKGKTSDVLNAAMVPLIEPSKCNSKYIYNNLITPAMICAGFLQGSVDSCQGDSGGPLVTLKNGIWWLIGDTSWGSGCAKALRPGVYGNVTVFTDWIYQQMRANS
Procedure: as §1, §2

[1] = test system: mouse hepatitis virus (MHV); experiment: Mouse hepatitis virus (MHV) infection of gnotobiotic mice; format: in vivo; settings: with 2-mix
Procedure: MHV-2 was provided by Makoto UJIKE (Nippon Veterinary and Life Science University). Five-week-old GF C57BL/6N male mice were obtained from CLEA Japan, Inc. or Sankyo Labo Service Corporation, and were separately bred in stainless steel isolators. 200 μL of 2-mix (B. uniformis and P. merdae)+P. clara (WT) or 2-mix+P. clara (Δ00502) was orally administered to the GF mice. Two weeks after inoculation, the mice were orally infected with 4.5×10^6 PFU of MHV-2, and the survival rate was observed every day for 10 days.
The liver and brain were collected on 4 or 5 days after infection to measure virus titers, and homogenization was performed with DNA/RNA Shield (Zymo Research Corporation). Viral RNA was extracted using a Quick-RNA Viral Kit (Zymo Research Corporation) according to the manufacturer's instructions, and cDNA was synthesized using ReverTra Ace (TOYOBO CO., LTD.) and a random primer (TOYOBO CO., LTD.).
Quantitative real-time PCR was performed with LightCycler 480 System (Roche) using THUNDERBIRD SYBR qPCR Mix (TOYOBO CO., LTD.) to amplify an orf1a gene. The relative amount of MHV was obtained from a standard curve created from a serial diluent solution of MHV genomic cDNA. The base sequences of the primers used are as follows.

Paraprevotella clara [JCM 14859]
IgA heavy chain in the faeces (IgA heavy chain): larger amount
body weight after infection with C. rodentium (Citrobacter rodentium; orally vaccinated mice): body weight loss was reduced
C. rodentium-specific IgA in cecal luminal contents (Citrobacter rodentium; western blot): significantly high amount of C. rodentium-specific IgA
total IgA in cecal luminal contents (Citrobacter rodentium; western blot): significantly high total IgA amount
amount of TMPRSS2 in the faeces (TMPRSS2): reduced
liver pathology (hematoxylin and eosin) [1]: protected from the necrotizing liver pathology
viral titers of MHV in liver and brain [1]: significantly prevented the spread of the virus
survival after MHV infection ([1]; oral MHV 14 days after inoculation): prolonged survival
